Laboratory results taken from patent US8618152B2, “Inhibitors of serine proteases, particularly HCV NS3-NS4A proteases” (Vertex Pharmaceuticals Incorporated, priority 2003, dated 2013).
*1 amine or outer side, *2 acyl side, *3 side chain or, on linkers, in order; H or OH if unused. Where a SMILES comes first, the peptide text is derived from it. [ ]: non-standard residue; d: D form. The star is where a group is joined. ξ: configuration not given here. Pro(3S-Et) = CC[C@H]1CCN[C@@H]1C(=O)O; Pyrazinecarbonyl = O=C(c1cnccn1)*; X1 = CCCC(N[*:1])C(=O)C(=O)[*:2]; Ile(3ξ) = CCC(C)[C@H](N)C(=O)O; aThr = C[C@H](O)[C@H](N)C(=O)O; Chg = N[C@H](C(=O)O)C1CCCCC1

These molecules were tested on Cells containing hepatitis C virus (HCV) replicon (assay: HCV replicon cell assay). Settings: 50% inhibition of HCV RNA level, 48-hour incubation, Taqman real-time RT-PCR, read-out: IC50.
Type: cell-based
Protocol: HCV Replicon Cell Assay Protocol
Cells containing hepatitis C virus (HCV) replicon were maintained in DMEM containing 10% fetal bovine serum (FBS), 0.25 mg per ml of G418, with appropriate supplements (media A).
On day 1, replicon cell monolayer was treated with a trypsin:EDTA mixture, removed, and then media A was diluted into a final concentration of 100,000 cells per ml with. 10,000 cells in 100 ul were plated into each well of a 96-well tissue culture plate, and cultured overnight in a tissue culture incubator at 37° C.
On day 2, compounds (in 100% DMSO) were serially diluted into DMEM containing 2% FBS, 0.5% DMSO, with appropriate supplements (media B). The final concentration of DMSO was maintained at 0.5% throughout the dilution series.
Media on the replicon cell monolayer was removed, and then media B containing various concentrations of compounds was added. Media B without any compound was added to other wells as no compound controls.
Cells were incubated with compound or 0.5% DMSO in media B for 48 hours in a tissue culture incubator at 37° C. At the end of the 48-hour incubation, the media was removed, and the replicon cell monolayer was washed once with PBS and stored at −80° C. prior to RNA extraction.
Culture plates with treated replicon cell monolayers were thawed, and a fixed amount of another RNA virus, such as Bovine Viral Diarrhea Virus (BVDV) was added to cells in each well. RNA extraction reagents (such as reagents from RNeasy kits) were added to the cells immediately to avoid degradation of RNA. Total RNA was extracted according the instruction of manufacturer with modification to improve extraction efficiency and consistency. Finally, total cellular RNA, including HCV replicon RNA, was eluted and stored at −80° C. until further processing.
A Taqman real-time RT-PCR quantification assay was set up with two sets of specific primers and probe. One was for HCV and the other was for BVDV. Total RNA extractants from treated HCV replicon cells was added to the PCR reactions for quantification of both HCV and BVDV RNA in the same PCR well. Experimental failure was flagged and rejected based on the level of BVDV RNA in each well. The level of HCV RNA in each well was calculated according to a standard curve run in the same PCR plate. The percentage of inhibition or decrease of HCV RNA level due to compound treatment was calculated using the DMSO or no compound control as 0% of inhibition. The IC50 (concentration at which 50% inhibition of HCV RNA level is observed) was calculated from the titration curve of any given compound.

First: CCC[C@H](NC(=O)[C@@H]1[C@@H](C2CCCCC2)CCN1C(=O)[C@@H](NC(=O)[C@@H](NC(=O)c1cnccn1)C1CCCCC1)C(C)(C)C)C(=O)C(=O)N[C@@H](C)C1CCCCC1 [Compound 67]
Second: CCCC(NC(=O)[C@@H]1[C@@H](CC)CCN1C(=O)[C@@H](NC(=O)[C@@H](NC(=O)c1cnccn1)C1CCCCC1)C(C)(C)C)C(=O)C(=O)NC1CC1 (some centres unmarked) [Compound 39]
The IC50 of the first is higher: over 1000 nM for the first, 500 to 1000 nM for the second.

Work on `CCCC(NC(=O)[C@@H]1[C@@H](CC)CCN1C(=O)[C@@H](NC(=O)[C@@H](NC(=O)c1cnccn1)C(c1ccccc1)c1ccccc1)C(C)C)C(=O)C(=O)NC1CC1` (some centres unmarked) [Compound 60] yielded an IC50 of over 1000 nM.

Same assay, conditions: 48 h

For `CCC[C@H](NC(=O)[C@@H]1[C@@H](C(C)C)CCN1C(=O)[C@@H](NC(=O)[C@@H](NC(=O)c1cnccn1)C1CCCCC1)C(C)C)C(=O)C(=O)NC1CC1` [Compound 64], the IC50 was over 1000 nM.

Each molecule was assayed against HCV NS3-NS4A protease (tNS3 with KK4A) (Hepatitis C virus genotype 1a, UniProt P27958) (assay: HCV Ki assay (HPLC microbore separation of 5AB substrate and products)). Settings: 25 nM tNS3, 25 μM KK4A, 25 μM 5AB substrate, 20 min at 30 C; read-out: Ki.
Type: biochemical
Protocol: HPLC Microbore Method for Separation of 5AB Substrate and Products
Substrate: NH2-Glu-Asp-Val-Val-(alpha)Abu-Cys-Ser-Met-Ser-Tyr-COOH
A stock solution of 20 mM 5AB (or concentration of your choice) was made in DMSO w/0.2M DTT. This was stored in aliquots at −20 C.
Buffer: 50 mM HEPES, pH 7.8; 20% glycerol; 100 mM NaCl
Total assay volume was 100 μL
The buffer, KK4A, DTT, and tNS3 were combined; distributed 78 μL each into wells of 96 well plate. This was incubated at 30 C for ˜5-10 min.
2.5 μL of appropriate concentration of test compound was dissolved in DMSO (DMSO only for control) and added to each well. This was incubated at room temperature for 15 min.
Initiated reaction by addition of 20 μL of 250 μM 5AB substrate (25 μM concentration is equivalent or slightly lower than the Km for 5AB).
Incubated for 20 min at 30 C.
Terminated reaction by addition of 25 μL of 10% TFA
Transferred 120 μL aliquots to HPLC vials
Separated SMSY product from substrate and KK4A by the following method:
Microbore Separation Method:
Instrumentation: Agilent 1100
Column thermostated chamber G1316A
Diode array detector G1315A
Solvent A=HPLC grade water+0.1% TFA
Solvent B=HPLC grade acetonitrile+0.1% TFA
Stop time: 17 min Post-run time: 10 min.

HCV NS3-NS4A protease (tNS3 with KK4A), sequence (P27958 1027-1208): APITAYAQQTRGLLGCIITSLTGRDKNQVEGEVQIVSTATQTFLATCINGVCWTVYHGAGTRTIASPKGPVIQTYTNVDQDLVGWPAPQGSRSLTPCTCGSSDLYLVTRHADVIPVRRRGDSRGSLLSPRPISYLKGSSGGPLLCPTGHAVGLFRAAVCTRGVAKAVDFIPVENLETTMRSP

First: CCCC(NC(=O)[C@@H]1[C@@H](CC)CCN1C(=O)[C@@H](NC(=O)[C@@H](NC(=O)c1cnccn1)C1CCCCC1)C(C)CC)C(=O)C(=O)N[C@@H](Cc1ccccc1)C(=O)O (stereo partly drawn) [Compound 29] (Pyrazinecarbonyl-[Chg][Ile(3ξ)][Pro(3S-Et)][X1]F-OH)
Second: CCCC(NC(=O)[C@@H]1[C@@H](CC)CCN1C(=O)[C@@H](NC(=O)[C@@H](NC(=O)c1cnccn1)C(C)C)C(C)CC)C(=O)C(=O)N[C@@H](Cc1ccccc1)C(=O)O (stereo partly drawn) [Compound 30] (Pyrazinecarbonyl-V[Ile(3ξ)][Pro(3S-Et)][X1]F-OH)
The Ki of the first is lower: under 100 nM for the first, 100 to 500 nM for the second. The first binds more tightly here.

Going from `CCC[C@H](NC(=O)[C@@H]1[C@@H](C2CCCCC2)CCN1C(=O)[C@@H](NC(=O)[C@@H](NC(=O)c1cnccn1)C1CCCCC1)C(C)(C)C)C(=O)C(=O)N[C@@H](C)C1CCCCC1` [Compound 67] to `CCCC(NC(=O)[C@@H]1[C@@H](CC)CCN1C(=O)[C@@H](NC(=O)[C@@H](NC(=O)c1cnccn1)C1CCCCC1)C(C)(C)C)C(=O)C(=O)NC1CC1` (some centres unmarked) [Compound 39], the Ki falls from over 500 nM to under 100 nM. The second binds more tightly here.

`CCC[C@H](NC(=O)[C@@H]1[C@@H](C(C)C)CCN1C(=O)[C@@H](NC(=O)[C@@H](NC(=O)c1cnccn1)C1CCCCC1)C(C)C)C(=O)C(=O)NC1CC1` [Compound 64] and `CCCC(NC(=O)[C@@H]1[C@@H](CC2CC2)CCN1C(=O)[C@@H](NC(=O)[C@@H](NC(=O)c1cnccn1)C(C)C)C(C)C)C(=O)C(=O)N[C@@H](Cc1ccccc1)C(=O)O` (some centres unmarked) [Compound 20] fall in the same range of Ki: 100 to 500 nM for the first, 100 to 500 nM for the second.

First: CCCC(NC(=O)[C@@H]1C(CC)CCN1C(=O)[C@@H](NC(=O)[C@@H](NC(=O)c1cnccn1)C(C)C)C(C)C)C(=O)C(=O)N[C@@H](Cc1ccccc1)C(=O)O (some centres unmarked) [Compound 5]
Second: CCCC(NC(=O)[C@@H]1[C@@H](CC)CCN1C(=O)[C@@H](NC(=O)[C@@H](NC(=O)c1cnccn1)C(C)C)[C@H](C)OC)C(=O)C(=O)N[C@@H](Cc1ccccc1)C(=O)O (stereo partly drawn) [Compound 33] (Pyrazinecarbonyl-V[aThr](Me)[Pro(3S-Et)][X1]F-OH)
The Ki of the first is lower: under 100 nM for the first, 100 to 500 nM for the second. The first binds more tightly here.

`CCCC(NC(=O)[C@@H]1[C@@H](C)CCN1C(=O)[C@@H](NC(=O)[C@@H](NC(=O)c1cnccn1)C(C)C)C(C)C)C(=O)C(=O)N[C@@H](Cc1ccccc1)C(=O)O` (some centres unmarked) [Compound 22] and `C=C[C@H]1CCN(C(=O)[C@@H](NC(=O)[C@@H](NC(=O)c2cnccn2)C(C)C)C(C)C)[C@@H]1C(=O)NC(CCC)C(=O)C(=O)N[C@@H](Cc1ccccc1)C(=O)O` (some centres unmarked) [Compound 19] fall in the same range of Ki: 100 to 500 nM for the first, 100 to 500 nM for the second.

Compared with `CCCC(NC(=O)[C@@H]1[C@@H](CC)CCN1C(=O)[C@@H](NC(=O)[C@H](CC(C)C)NC(=O)c1cnccn1)C(C)C)C(=O)C(=O)N[C@@H](Cc1ccccc1)C(=O)O` (stereo partly drawn) [Compound 28] (Pyrazinecarbonyl-LV[Pro(3S-Et)][X1]F-OH), `CCCC(NC(=O)[C@@H]1[C@@H](CC)CCN1C(=O)[C@@H](NC(=O)[C@@H](NC(=O)c1cnccn1)C(C)C)[C@@H](C)OC)C(=O)C(=O)N[C@@H](Cc1ccccc1)C(=O)O` (stereo partly drawn) [Compound 35] (Pyrazinecarbonyl-VT(Me)[Pro(3S-Et)][X1]F-OH) is higher in Ki: under 100 nM for the first, over 500 nM for the second. The first binds more tightly here.

In the case of `CCCC(NC(=O)[C@@H]1[C@@H](C(C)CC)CCN1C(=O)[C@@H](NC(=O)[C@@H](NC(=O)c1cnccn1)C(C)C)C(C)C)C(=O)C(=O)N[C@@H](Cc1ccccc1)C(=O)O` (some centres unmarked) [Compound 57], the Ki is reported as under 100 nM.
